Test results from patent US12121500B2, “Inhibitors of Bunyaviridae and uses thereof” (priority 2020, dated 2024).
In brackets after ≈: the same amount, converted by molar mass. Like-named read-outs stand apart in the source and are kept apart here.

Experiments:
[1] = in vitro; details: African green monkey
[2] = tested on: RVFV strain MP12; experiment: microbe, parasite or virus in culture; assay type: cell-based, Rift Valley Fever Virus; details: for EC50: Rift Valley fever virus, Vero, read-out: Estimated EC50
[3] = Quantitative cytotoxicity in Vero cells, crystal violet staining of EC50 plates; details: African green monkey
[4] = biological target: T1, human ribonuclease H1 (Homo sapiens, UniProt O60930); experiment: biochemical; assay type: biochemical
T1 construct: made in house; host or cells: E. coli
T1 sequence (O60930 1-286): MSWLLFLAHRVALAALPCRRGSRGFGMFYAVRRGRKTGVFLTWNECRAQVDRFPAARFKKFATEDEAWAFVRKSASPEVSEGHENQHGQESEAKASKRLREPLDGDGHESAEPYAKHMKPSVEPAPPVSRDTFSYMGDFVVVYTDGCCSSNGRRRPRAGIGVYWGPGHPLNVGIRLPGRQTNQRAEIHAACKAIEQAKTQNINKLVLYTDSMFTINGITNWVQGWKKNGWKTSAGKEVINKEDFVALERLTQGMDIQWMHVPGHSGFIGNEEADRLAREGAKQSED

[5] = tested on: C. neoformans; experiment: Inhibition of C. neoformans growth, limiting dilution assay; assay type: cell-based, Cryptococcus neoformans; details: Cryptococcus neoformans
[6] = tested on: RVFV; experiment: microbe, parasite or virus in culture; assay type: cell-based, Rift Valley Fever Virus
[7] = tested on: Staphylococcus spp.; experiment: Inhibition of Staphylococcus spp. growth, broth microdilution; assay type: cell-based, S. saprophyticus or S. aureus; details: Staphylococcus; 16-24 hours, Mueller-Hinton broth; — = no measurable MIC80
[8] = tested on: RVFV; experiment: microbe, parasite or virus in culture; assay type: cell-based, Rift Valley Fever Virus; details: Rift Valley fever virus, A549, 24 h
[9] = in vitro; details: human
[10] = Cytotoxicity in HepDES19 cells, MTS assay; details: human
[11] = 48 hours at 35° C., YNB-02, read-out: C. neoformans (MIC80)
[12] = Rift Valley fever virus, Vero, 24 h, read-out: RVFV (EC50, μM)
[13] = 48 h, read-out: C. neoformans (MIC80, μM)
[14] = HepDES19 cells (HepG2-derived hepatoblastoma cell line)

Compound	CC50 [1] [µM]	EC50 [2] [µM]	CC50 at 1 day [3] [µM]	IC50 [4] [µM]	MIC80 [5, 11] [µM]	EC50 [6, 12] [µM]	further results
Cc1cc(O)c(=O)c(O)cc1-c1ccc(-c2cccc3ccccc23)cc1 [Compound 234]	≥ 120	19	–	–	–	–	–
Cc1cc(O)c(=O)c(O)cc1C(=O)c1ccccc1 [Compound 111]	–	–	> 250	48	36 (≈ 9.23 µg/mL)	19	–
O=c1c(O)ccc(-c2ccco2)cc1O [Compound 265]	–	–	> 250	57	11 (≈ 2.25 µg/mL)	15.4	MIC80 [7]: 30 µM (≈ 6.13 µg/mL)
CCCCNC(=O)c1cc(O)c(=O)c(O)cc1C [Compound 1039]	≥ 120	6	> 120	–	12 (≈ 3.02 µg/mL)	8.9	EC50 [8]: 15.5 µM; CC50 [9]: ≥ 120 µM
C/C(=N\c1ccccc1F)c1c(C)cc(=O)n(O)c1O [Compound 516]	≥ 120	19	–	–	–	–	–
Cc1cc(O)c(=O)c(O)cc1-c1ccccc1 [Compound 113]	–	–	> 250	174	24 (≈ 5.48 µg/mL)	10.3	–
COC(=O)c1c(C)cc(O)c(=O)c(O)c1Br [Compound 335]	–	3	> 120	111	–	40.8	EC50 [8]: ≥ 120 µM; MIC80 [5, 13]: 50 µM (≈ 14.5 µg/mL); CC50 [9]: 96.2 µM
O=C1c2ccccc2C(=O)N1O [Compound 138, reference compound]	–	≥ 120	–	–	–	–	–
Cc1cc(O)c(=O)c(O)cc1S(=O)(=O)c1ccccc1 [Compound 336]	–	3	65.8	–	50 (≈ 14.6 µg/mL)	9	IC50 ([4]; read-out: Human RNaseH1 (IC50)): 85 µM
Cc1ccc(O)c(=O)c(O)c1 [Compound 210]	≥ 120	8	283	85	15 (≈ 2.28 µg/mL)	14.6	–
Cc1cc(O)c(=O)c(O)cc1C(=O)NCc1ccc(N2CCCC2)cc1 [Compound 1019]	≥ 120	19	–	–	–	–	–
Cc1cc(O)c(=O)c(O)cc1C(=O)c1ccc(-c2ccccc2)cc1 [Compound 118]	–	–	248	> 500	15 (≈ 4.99 µg/mL)	11	–
Cc1cc(O)c(=O)c(O)cc1C(=O)N1CCN(c2ccc([N+](=O)[O-])c3nonc23)CC1 [Compound 920]	≥ 120	19	–	–	–	–	–
COc1ccc(Cl)cc1C(=O)Sc1cccccc1=O [Compound 681]	2	≥ 120	–	–	–	–	–
O=C1C=CC(=O)c2ccccc21 [Compound 327]	–	2	42.9	47	9.1 (≈ 1.44 µg/mL)	39.7	EC50 [8]: 19.6 µM; CC50 at 3 days [10, 14]: 18.5 µM; CC50 [9]: 27.5 µM
Cc1cc(O)c(=O)c(O)cc1C(=O)Nc1cccc(OCc2ccccc2)c1 [Compound 836]	≥ 120	13	–	–	–	–	–
CC(C)c1cccc(=O)c(O)c1 [Compound 47, β-thujaplicin, reference compound]	–	≥ 120	–	–	–	–	activity against RVFV in the primary screen, in words [2]: inactive
O=c1c(O)c(-c2ccc(O)c(O)c2)oc2cc(O)c(O)c(O)c12 [Compound 7, Quercetagetin, reference compound]	–	≥ 120	–	–	–	–	–

Compound	CC50 [1] [µM]	EC50 [2] [µM]	CC50 at 1 day [3] [µM]	IC50 [4] [µM]	MIC80 [5, 11] [µM]	EC50 [6, 12] [µM]	further results
C/C(=N\c1ccccc1Cl)c1c(C)cc(O)n(O)c1=O [Compound 668]	≥ 120	11	> 120	165	–	14 to 20	EC50 [8]: 35.7 µM; CC50 at 3 days [10, 14]: 76.8 µM; EC50 ([6]; read-out: RVFV (EC50)): 19.2 µM; CC50 [9]: 82 µM
Cc1ccc(CNC(=O)c2cc(O)c(=O)c(O)cc2C)c(C)c1 [Compound 809]	64	17	–	–	–	–	–
O=C(O)CC(=O)CC(=O)c1cccs1 [Compound 129, reference compound]	–	≥ 120	–	–	–	–	–
CC(=O)c1c(C)cc(O)c(=O)c(O)c1Cl [Compound 368]	–	–	> 250	115	24 (≈ 5.49 µg/mL)	25.4	CC50 at 3 days [10, 14]: 31 µM
COC(=O)c1c(C)cc(O)c(=O)c(O)c1O [Compound 196]	–	–	> 250	408	–	23.9	MIC80 [7]: 67 µM (≈ 15.2 µg/mL); CC50 at 3 days [10, 14]: 6 µM
Cc1cc(O)c(=O)c(O)cc1C(=O)C1CCCCC1 [Compound 120]	–	–	> 250	81	12 (≈ 3.15 µg/mL)	15.6	–
COc1ccc(CO/N=C(\C)c2c[nH]c(=O)[nH]c2=O)cc1 [Compound 522]	1	≥ 120	–	–	–	–	–
CC(=O)c1c(C)cc(O)c(=O)c(O)c1Br [Compound 320]	–	2	> 120	37	49 (≈ 13.4 µg/mL)	20.1	EC50 [8]: 90.3 µM; CC50 at 3 days [10, 14]: 49.5 µM; CC50 [9]: ≥ 120 µM
CC(C)c1ccc(O)c(=O)cc1 [Compound 48, γ-thujaplicin, reference compound]	–	≥ 120	–	–	–	–	activity against RVFV in the primary screen, in words [2]: inactive
Cc1cc(O)c(=O)c(O)cc1C(=O)NCc1ccc(-c2ccccc2)cc1 [Compound 539]	71	10	> 300	105	4.5 (≈ 1.63 µg/mL)	18.6	MIC80 [7]: 38 µM (≈ 13.7 µg/mL); CC50 at 3 days [10, 14]: 3.6 µM
NC(=O)c1c(N)sc2c1CCCCC2 [Compound 22, reference compound]	–	≥ 120	–	–	–	–	–
Cc1ccc(Sc2cccc(O)c(=O)c2O)cc1 [Compound 838]	86	8	> 300	100	1 (≈ 0.26 µg/mL)	12.7	CC50 at 3 days [10, 14]: 18.6 µM
CC1=CC(O)N(O)C(O)=C1/C(C)=N/c1ccccc1N (centres unmarked) [Compound 208]	≥ 120	14	> 250	194	–	> 120	CC50 at 3 days [10]: 14.4 µM; MIC80 [5, 13]: 30 µM (≈ 8.26 µg/mL)
Cc1cc(O)c(=O)c(O)cc1C(=O)N1CCN(C(=O)C2COc3ccccc3O2)CC1 (centres unmarked) [Compound 876]	≥ 120	–	–	–	–	–	–
CSc1cccc(O)c(=O)c1O [Compound 385]	–	–	> 250	176	24 (≈ 4.42 µg/mL)	25.2	CC50 at 3 days [10, 14]: > 100 µM
Cc1cc(O)c(=O)c(O)cc1C(=O)N1CCCCC1 [Compound 390]	–	0.1	> 250	106	11 (≈ 2.9 µg/mL)	11.9	activity against RVFV in the primary screen, in words [2]: active; EC50 [8]: 9.37 µM; CC50 at 3 days [10, 14]: 29.8 µM; CC50 [9]: ≥ 120 µM
CCOC(=O)c1sc(NC(=O)CSc2nnc(Cc3ccccc3)o2)c(C#N)c1C [Compound 6, reference compound]	–	≥ 120	–	–	–	–	–
